≈ marks a conversion by molar mass, not a printed value. Where “and” joins values, the source holds several entries; their conditions need not be identical. Equal entries are not always repeated. Where two headings read alike, the source gives them in different places.
Legend:
[1] = tested on: Candida albicans ATCC 10231; assay: Broth dilution MIC/MFC, reference fungal strain; assay type: cell-based; conditions: Candida albicans, ATCC10231
Protocol: (§1) The tests were carried out using a serial dilution method, allowing the determination of MIC (minimal concentration inhibiting bacterial growth), MBC (minimal bactericidal concentration), and MFC (minimal fungicidal concentration) values.
(§2) Antimicrobial activity was tested using the following reference strains: Staphylococcus aureus ATCC 6538 (MSSA), Staphylococcus aureus ATCC 43300 (MRSA), Staphylococcus epidermidis PCM 2118, Escherichia coli ATCC 11229, Pseudomonas aeruginosa ATCC 15442, Proteus vulgaris NCTC 4635, Enterococcus faecalis ATCC 11420, and Candida albicans ATCC 10231.
(§3) A broth dilution method was used to determine minimal inhibitory concentration (MIC) for tested compounds as recommended by Clinical Laboratory Standards Institute (CLSI) guidelines. Investigated compounds were diluted in Mueller Hinton Broth 2 (Sigma-Aldrich Co., St. Louis, MO, USA) in polypropylene 96-well plates and initial inoculum 5 × 10^5 cfu/mL were incubated at 37 °C for 18 h. MIC was taken as the lowest drug concentration at which an observable growth was inhibited. […] The loopful (10 µL) of the tested sample was transferred to Tryptic Soy Agar (TSA, Becton-Dickinson, Franklin Lakes, NJ, USA) and incubated at 37 °C for 48 h. […] Drug Solutions were made fresh on the day of the assay. All experiments were performed in triplicate.

[2] = tested on: HaCaT cell line (human keratinocyte); assay: MTT cell viability assay; assay type: cell-based; conditions: 72 h, read-out: IC50 HaCaT
[3] = tested on: Gram-positive reference strains; assay: Broth dilution MIC/MBC, summary over Gram-positive reference strains; assay type: cell-based
Protocol: […]. The tests were carried out using a serial dilution method, allowing the determination of MIC (minimal concentration inhibiting bacterial growth), MBC (minimal bactericidal concentration), and MFC (minimal fungicidal concentration) values.
as §2, §3

[4] = tested on: clinical isolates of methicillin-resistant S. aureus (50–54) and methicillin-sensitive S. aureus (55–59); assay: Broth dilution MIC/MBC, summary over clinical S. aureus isolates; assay type: cell-based, Staphylococcus aureus
From the text: (§4) […]. Both MRSA and MSSA strains were derived from various human infections.
(§5) […]. Five methicillin-resistant S. aureus strains were isolated from nose (n = 1), bronchoalveolar lavage (n = 1), sputum (n = 1), wound (n = 1), and blood (n = 1); five methicillin-susceptible S. aureus strains were isolated from throat (n = 1), bronchoalveolar lavage (n = 1), sputum (n = 1), abscess (n = 1), and blood (n = 1).
(§6) The identity of S. aureus isolates was confirmed with conventional methods and with Pastorex Staph-Plus latex agglutination kit (Bio-Rad, Marnes-la-Coquette, France) and verified applying the polymerase chain reaction (PCR) of S. aureus-specific region of the thermonuclease gene, nuc. Resistance to methicillin was first verified using cefoxitin disk (30 µg), and then, identified based on the presence of mecA gene. S. aureus ATCC®25923 (methicillin-susceptible) and S. aureus ATCC®43300 (MDR) were applied as the reference strains. Both the reference and clinical strains were stored at −80 °C, in Tryptic Soy Broth (TSB, Becton-Dickinson, Franklin Lakes, NJ, USA) supplemented with 15% glycerol.
as §3

S.aureus 59 (MSSA) = assay: Broth dilution MIC/MBC, clinical MSSA isolate; assay type: cell-based; conditions: Staphylococcus aureus, MSSA
From the text: as §4, §5, §6, §3

S.aureus 58 (MSSA) = assay: Broth dilution MIC/MBC, clinical MSSA isolate; assay type: cell-based; conditions: Staphylococcus aureus, MSSA
From the text: as §4, §5, §6, §3

S.aureus 55 (MSSA) = assay: Broth dilution MIC/MBC, clinical MSSA isolate; assay type: cell-based; conditions: Staphylococcus aureus, MSSA
From the text: as §4, §5, §6, §3

S.aureus 57 (MSSA) = assay: Broth dilution MIC/MBC, clinical MSSA isolate; assay type: cell-based; conditions: Staphylococcus aureus, MSSA
From the text: as §4, §5, §6, §3

S.aureus 56 (MSSA) = assay: Broth dilution MIC/MBC, clinical MSSA isolate; assay type: cell-based; conditions: Staphylococcus aureus, MSSA
From the text: as §4, §5, §6, §3

[5] = tested on: Escherichia coli ATCC 11229; assay: Broth dilution MIC/MBC, reference strain; assay type: cell-based; conditions: Escherichia coli, ATCC11229
Protocol: as §1, §2, §3

[6] = tested on: Enterococcus faecalis ATCC 11420; assay: Broth dilution MIC/MBC, reference strain; assay type: cell-based; conditions: Enterococcus faecalis, ATCC11420
Protocol: as §1, §2, §3

[7] = tested on: Staphylococcus aureus ATCC 6538 (MSSA); assay: Broth dilution MIC/MBC, reference strain; assay type: cell-based; conditions: Staphylococcus aureus
Protocol: as §1, §2, §3

[8] = tested on: Staphylococcus aureus ATCC 43300 (MRSA); assay: Broth dilution MIC/MBC, reference strain; assay type: cell-based; conditions: Staphylococcus aureus
Protocol: as §1, §2, §3

[9] = tested on: Pseudomonas aeruginosa ATCC 15442; assay: Broth dilution MIC/MBC, reference strain; assay type: cell-based; conditions: Pseudomonas aeruginosa, ATCC15442
Protocol: as §1, §2, §3

[10] = tested on: Proteus vulgaris NCTC 4635; assay: Broth dilution MIC/MBC, reference strain; assay type: cell-based; conditions: Proteus vulgaris, NCTC4635
Protocol: as §1, §2, §3

[11] = tested on: Staphylococcus epidermidis PCM 2118; assay: Broth dilution MIC/MBC, reference strain; assay type: cell-based
Protocol: as §1, §2, §3

S.aureus 52 (MRSA) = assay: Broth dilution MIC/MBC, clinical MRSA isolate; assay type: cell-based; conditions: Staphylococcus aureus, MRSA
From the text: as §4, §5, §6, §3

S.aureus 50 (MRSA) = assay: Broth dilution MIC/MBC, clinical MRSA isolate; assay type: cell-based; conditions: Staphylococcus aureus, MRSA
From the text: as §4, §5, §6, §3

S.aureus 51 (MRSA) = assay: Broth dilution MIC/MBC, clinical MRSA isolate; assay type: cell-based; conditions: Staphylococcus aureus, MRSA
From the text: as §4, §5, §6, §3

S.aureus 54 (MRSA) = assay: Broth dilution MIC/MBC, clinical MRSA isolate; assay type: cell-based; conditions: Staphylococcus aureus, MRSA
From the text: as §4, §5, §6, §3

S.aureus 53 (MRSA) = assay: Broth dilution MIC/MBC, clinical MRSA isolate; assay type: cell-based; conditions: Staphylococcus aureus, MRSA
From the text: as §4, §5, §6, §3

MRSA 52 biofilm = assay: Biofilm inhibition assay (crystal violet); assay type: cell-based, Staphylococcus aureus; conditions: MRSA 52, 4 × MIC
Protocol: (§7) For many decades, S. aureus has been identified as the most common etiologic agent of device related infections, associated with biofilm formation. These infections are hard to cure because the specific structure of biofilm confers resistance to the host immune response and to the action of antibiotics.
(§8) Then, 100 µL bacterial suspension prepared from fresh overnight culture by diluting with TSB to obtain the initial inoculum 2 × 10^6 CFU/mL was added. The plates were incubated for 24 h at 37 °C. After the incubation, the wells were discarded and were gently rinsed three times with PBS to remove planktonic staphylococcal cells. Then, contents of the wells were discarded and the biofilm was fixed with 200 µL methanol for 20 min and dried at room temperature for 30 min. The biofilm was stained by adding 200 µL 1.8% crystal violet solution for 15 min. After staining, the plates were rinsed with water and 200 µL bleaching solution (30% ethanol, 30% glacial acetic acid, 40% water) added for 15 min to dissolve the remaining crystal violet. A microplater reader was used to measure the absorbance of the adherent biofilm at 570 nm (OD570). […] The negative control included only the growth medium.

MRSA 51 biofilm = assay: Biofilm inhibition assay (crystal violet); assay type: cell-based, Staphylococcus aureus
Protocol: as §7, §8

MSSA 58 biofilm = assay: Biofilm inhibition assay (crystal violet); assay type: cell-based, Staphylococcus aureus
Protocol: as §7, §8

MSSA 59 biofilm = assay: Biofilm inhibition assay (crystal violet); assay type: cell-based, Staphylococcus aureus; conditions: MSSA 59, 4 × MIC
Protocol: as §7, §8

Cc1cc(S(=O)(=O)NC(=O)C=Cc2ccccc2)c(SCc2cccc3ccccc23)cc1Cl [Compound 16, N-[4-Chloro-5-methyl-2-(naphthalen-1-ylmethylthio)benzenesulfonyl]cinnamamide]
MFC [1]: 128 µg/mL (≈ 252 µM) | MIC [1]: 64 µg/mL (≈ 126 µM) | IC50 [2]: 19 µg/mL and 38 µM | MIC [3]: 4 to 8 µg/mL (≈ 7.87 to 15.7 µM) | MBC ([4]; Staphylococcus aureus): > 128 µg/mL | MIC ([4]; Staphylococcus aureus): 4 to 8 µg/mL (≈ 7.87 to 15.7 µM) | MIC ([4]; summary over ten clinical MRSA and MSSA isolates (Table 4)): 4 to 8 µg/mL | MBC (S.aureus 59 (MSSA)): > 128 µg/mL | MIC (S.aureus 59 (MSSA)): 4 µg/mL (≈ 7.87 µM) | MBC (S.aureus 58 (MSSA)): > 128 µg/mL | MIC (S.aureus 58 (MSSA)): 8 µg/mL (≈ 15.7 µM) | MBC (S.aureus 55 (MSSA)): > 128 µg/mL | MIC (S.aureus 55 (MSSA)): 4 µg/mL (≈ 7.87 µM) | MBC (S.aureus 57 (MSSA)): > 128 µg/mL | MIC (S.aureus 57 (MSSA)): 4 µg/mL (≈ 7.87 µM) | MBC (S.aureus 56 (MSSA)): > 128 µg/mL | MIC (S.aureus 56 (MSSA)): 4 µg/mL (≈ 7.87 µM) | MBC [5]: > 128 µg/mL | MIC [5]: 128 µg/mL (≈ 252 µM) | MBC [6]: > 128 µg/mL | MIC [6]: 8 µg/mL (≈ 15.7 µM) | MBC [7]: > 128 µg/mL | MIC [7]: 4 µg/mL (≈ 7.87 µM) | MBC [8]: > 128 µg/mL | MIC [8]: 4 µg/mL (≈ 7.87 µM) | MBC [9]: > 128 µg/mL | MIC [9]: 128 µg/mL (≈ 252 µM) | MBC [10]: > 128 µg/mL | MIC [10]: 128 µg/mL (≈ 252 µM) | MBC ([11]; S. epidermidis PCM 2118): 4 µg/mL (≈ 7.87 µM) | MIC ([11]; Staphylococcus epidermidis, PCM2118): 4 µg/mL (≈ 7.87 µM) | MBC ([11]; Staphylococcus epidermidis, PCM2118, S. epidermidis PCM 2118, read-out: MBC): 4 to 16 µg/mL (≈ 7.87 to 31.5 µM) | MBC (S.aureus 52 (MRSA)): > 128 µg/mL | MIC (S.aureus 52 (MRSA)): 4 µg/mL (≈ 7.87 µM) | MBC (S.aureus 50 (MRSA)): > 128 µg/mL | MIC (S.aureus 50 (MRSA)): 4 µg/mL (≈ 7.87 µM) | MBC (S.aureus 51 (MRSA)): > 128 µg/mL | MIC (S.aureus 51 (MRSA)): 4 µg/mL (≈ 7.87 µM) | MBC (S.aureus 54 (MRSA)): > 128 µg/mL | MIC (S.aureus 54 (MRSA)): 8 µg/mL (≈ 15.7 µM) | MBC (S.aureus 53 (MRSA)): > 128 µg/mL | MIC (S.aureus 53 (MRSA)): 8 µg/mL (≈ 15.7 µM) | inhibition of biofilm formation (MRSA 52 biofilm): 87–90% | inhibition of biofilm formation (MRSA 51 biofilm; MRSA 51, 4 × MIC): 87–90% | inhibition of biofilm formation (MRSA 51 biofilm; MRSA 51, concentration equal to the MIC): 35% | inhibition of biofilm formation (MSSA 58 biofilm; MSSA 58, 2 × MIC): 86% | inhibition of biofilm formation (MSSA 58 biofilm; MSSA 58, concentration equal to the MIC): 44% | inhibition of biofilm formation (MSSA 59 biofilm): 87–90%

— article PMC6981581, “N-(2-Arylmethylthio-4-Chloro-5-Methylbenzenesulfonyl)amide Derivatives as Potential Antimicrobial Agents—Synthesis and Biological Studies” (International Journal of Molecular Sciences, 2019)
